Assay [1] concerns the target T1, human MCHR1 (Homo sapiens, UniProt Q99705).
T1 construct: expressed in transfected cells; host or cells: CHO cell clone 57 (described in WO01/82925); membrane fraction
The experiment in a line: Human MCH receptor 1 (MCHR1) binding inhibitory activity, binding assay with [125I]-MCH(4-19). The settings on record: test compound 0.1 μM, human MCHR1-expressing CHO cell membrane fraction, read-out: Binding inhibition rate % (0.1 μM). The protocol: Determination of Human MCH Receptor 1 (MCHR1) Binding Inhibitory Activity of Test Compound Using Binding Assay
1. Preparation of Membrane Fraction
Using human MCHR1(=SLC-1 receptor)-expressing CHO cell clone 57 described in WO01/82925, MCHR1-expressing CHO cellular membrane fractions were prepared by the following method.
In phosphate buffered saline (pH 7.4) supplemented with 5 mM EDTA (ethylenediaminetetraacetic acid) were respectively suspended human MCHR1-expressing CHO cells (1×10^8 cells) and centrifuged. Homogenate buffer (10 mL, 10 mM NaHCO3, 5 mM EDTA, pH 7.5, 0.5 mM PMSF (phenylmethylsulfonyl fluoride), 20 mg/L leupeptin, 4 mg/L E-64, 1 mg/L pepstatin A) was added to the pellets of the cells and, using Polytron Homogenizer, the mixture was homogenated. The supernatant obtained after centrifugation at 400×g for 10 min was further centrifuged at 100,000×g for 1 hr to give precipitate of the membrane fraction. The precipitate were suspended in 2 mL of assay buffer [20 mM Tris-HCl (pH 7.5), 5 mM EDTA, 0.5 mM PMSF, 20 mg/L leupeptin, 4 mg/L E-64, 1 mg/L pepstatin A]. The membrane fractions were suspended in assay buffer to a protein concentration of 2 mg/mL, and after dispensing, preserved at −80° C. and used upon thawing each time when in use.
The MCHR1 ligand binding inhibitory activity of the test compound was determined as follows.
An MCHR1-expressing CHO cellular membrane fraction (173 μL) diluted with an assay buffer was dispensed to a 96 well polypropylene plate (3363, Corning). DMSO solution (2 μL), 33 μM cold MCH(1-19) diluted with DMSO solution (2 μL), or a test compound solution diluted with DMSO solution to various concentrations (2 μL) was added, and lastly, [^125I]-MCH(4-19) diluted with assay buffer (hereinafter, sometimes to be referred to as “hot MCH”, 25 μL) was added to each well. The mixture was reacted with stirring at room temperature for 1 hr, and the plate was set on FilterMate Harvester (PerkinElmer). Using a treating glass filter plate (GF/C, PerkinElmer) with polyethyleneimine, which had been previously set, the plate was suction-filtered and washed three times with washing buffer (50 mM Tris-HCl buffer pH 7.5). The glass filter plate was dried, MicroScinti0 (PerkinElmer) was added at 25 μL/well, and the resulting radioactivity was measured by TopCount liquid scintillation counter (PerkinElmer). The binding inhibition rate of the test compound was calculated by the following formula. Binding inhibition (%)=100−(radioactivity upon addition of test compound and hot MCH−radioactivity upon addition of cold MCH and hot MCH solution)/(radioactivity upon addition of DMSO solution and hot MCH−radioactivity upon addition of cold MCH and hot MCH solution)×100
The binding inhibition rates (%) of test compounds (0.1 μM) as measured using human MCHR1-expressing CHO cell are shown in Table 2.

In assay [2] the target is T1, human MCHR1. The experiment in a line: MCH receptor 1 antagonistic activity, Ca2+ mobilization assay. The assay is classed as cell-based. The settings on record: test compound 0.1 μM; human MCHR1-expressing CHO cells (clone #4); MCH(4-19) 2 nM; read-out: Inhibition rate % (0.1 μM). How it is done:
Measurement of MCH Receptor 1 Antagonistic Activity of Test Compound Using Ca^2+ Mobilization Assay
Using an expression vector plasmid introduced with human MCHR1 gene for expression in animal cells, human MCHR1 gene was introduced into CHO cells (CHO dhfr^−) by Lipofectamine LTX (Invitrogen). The cells were cultured in selection MEMα medium [445 mL of MEMα medium without nucleic acid and added with 5 mL of Penicillin-Streptomycin (Invitrogen) and 50 mL of dialyzed fetal bovine serum]. Colony 24 clones grown in the selection medium, which were human MCHR1 gene-expressing CHO cell candidates, were selected. […] In the following test, this human MCHR1-expressing CHO cell (clone #4) was used. An integrated dispensing function fluorometer (CellLux, PerkinElmer) was used for Ca^2+ mobilization assay. The CHO cells were sown in a 96 well plate (type 3904, Corning) with a black wall and clear well bottom at a density of 20000 cells/well, and cultured in an incubator for about 24 hr at 5% CO2, 37° C. The medium was removed, and the cells were washed with phosphate buffered saline (PBS). A Ca^2+ indicator dye reagent (DOJINDO LABORATORIES, Ca screening no-wash kit Fluo4) was added at 100 μL/well, and the dye was allowed to penetrate into the cell for 30 min in an incubator at 5% CO2, 37° C. The plate was set on a plate reader. First, a test compound solution diluted with an assay buffer [10 mM HEPES (pH 7.4), 1× assay buffer containing 0.1% BSA (DOJINDO LABORATORIES, attached to Ca screening no-wash kit Fluo4)] or DMSO solution was added at 50 μL/well, and then ligand MCH (4-19) peptide (final concentration 2 nM) diluted with assay buffer or DMSO was added at 50 μL/well, during which changes in intracellular fluorescence were measured at 2 second intervals. The antagonistic activity of the test compound was calculated by the following formula and shown as an inhibition rate (%) wherein the intracellular fluorescence activity resulting from the stimulation by the addition of ligand MCH (4-19) peptide was 100% and that of the well added with DMSO solution alone was 0%. inhibitory rate (%)=100−[fluorescence activity upon addition of test compound and MCH(4-19) peptide solution−fluorescence activity upon addition of DMSO solution only]/[fluorescence activity upon addition of DMSO solution and MCH(4-19) peptide solution−fluorescence activity upon addition of DMSO solution only]×100
The inhibition rates (%) of test compounds (0.1 μM) as antagonist activity measured using human MCHR1-expressing CHO cells (clone #4) are shown in the following Table 3.
(In general: A change in cytosolic calcium serves as a functional read-out for many receptors and channels.)

By inhibition is commonly meant the relative decrease from the control value, in per cent.

T1 sequence (Q99705 whole entry): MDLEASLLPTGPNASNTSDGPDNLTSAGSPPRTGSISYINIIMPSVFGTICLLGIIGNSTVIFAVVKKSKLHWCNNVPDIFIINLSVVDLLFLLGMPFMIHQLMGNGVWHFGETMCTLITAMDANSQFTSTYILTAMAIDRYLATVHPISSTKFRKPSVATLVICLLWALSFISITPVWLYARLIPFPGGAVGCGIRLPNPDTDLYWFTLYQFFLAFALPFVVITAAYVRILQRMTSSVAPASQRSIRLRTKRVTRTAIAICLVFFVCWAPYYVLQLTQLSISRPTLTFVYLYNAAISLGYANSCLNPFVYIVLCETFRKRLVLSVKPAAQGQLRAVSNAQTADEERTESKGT

As to `COc1cc(-n2ccc3oc(-c4ccc(F)cc4)cc3c2=O)ccc1OCC1(C#N)CC1` [Example 10, 1-((4-(2-(4-Fluorophenyl)-4-oxofuro[3,2-c]pyridin-5(4H)-yl)-2-methoxyphenoxy)methyl)cyclopropanecarbonitrile], the inhibition at 0.1 µM at human MCHR1 [1] stood at 83%; on human MCHR1 [2], 86%.

On to `COc1cc(-n2ccc3oc(-c4ccc(Cl)cc4)cc3c2=O)ccc1OCC1(C)COC1` [Example 41, 2-(4-Chlorophenyl)-5-(3-methoxy-4-((3-methyloxetan-3-yl)methoxy)phenyl)furo[3,2-c]pyridin-4(5H)-one], for which the inhibition at 0.1 µM on human MCHR1 [1] worked out at 97%; at human MCHR1 [2], 92%.

As to `COc1cc(-n2ccc3oc(-c4ccc(Cl)cc4)cc3c2=O)ccc1OCC(C)(C)O` [Example 7, 2-(4-Chlorophenyl)-5-(4-(2-hydroxy-2-methylpropoxy)-3-methoxyphenyl)furo[3,2-c]pyridin-4(5H)-one], the inhibition at 0.1 µM is 97% at human MCHR1 [1] and 106% at human MCHR1 [2].

Turning to `COc1cc(-n2ccc3oc(-c4ccc(Cl)s4)cc3c2=O)ccc1OCC1(C#N)CC1` [Example 12, 1-((4-(2-(5-Chloro-2-thienyl)-4-oxofuro[3,2-c]pyridin-5(4H)-yl)-2-methoxyphenoxy)methyl)cyclopropanecarbonitrile], the inhibition at 0.1 µM turned out to be 53% on human MCHR1 [1] and 64% at human MCHR1 [2].

On to `COc1cc(-n2ccc3oc(-c4ccc(Cl)cc4)cc3c2=O)ccc1OCC1CCO1` (centres unmarked) [Example 43, 2-(4-Chlorophenyl)-5-(3-methoxy-4-(oxetan-2-ylmethoxy)phenyl)furo[3,2-c]pyridin-4(5H)-one], for which the inhibition at 0.1 µM at human MCHR1 [1] stood at 92%; at human MCHR1 [2] it was 99%.

As to `COc1cc(-n2ccc3oc(-c4ccc(OC(F)(F)F)cc4)cc3c2=O)ccc1OCC1(C#N)CC1` [Example 28, 1-((2-Methoxy-4-(4-oxo-2-(4-(trifluoromethoxy)phenyl)furo[3,2-c]pyridin-5(4H)-yl)phenoxy)methyl)cyclopropanecarbonitrile], the inhibition at 0.1 µM at human MCHR1 [1] was determined as 63%; at human MCHR1 [2], 24%.

`COc1cc(-n2ccc3oc(-c4ccc(Cl)cc4)cc3c2=O)ccc1OCC1(C#N)CC1` [Example 5, 1-((4-(2-(4-Chlorophenyl)-4-oxofuro[3,2-c]pyridin-5(4H)-yl)-2-methoxyphenoxy)methyl)cyclopropanecarbonitrile]: the inhibition at 0.1 µM on human MCHR1 [1] stood at 97%; on human MCHR1 [2], 100%.

As for `COc1ccc(-n2ccc3oc(-c4ccc(Cl)cc4)cc3c2=O)cc1OC` [Example 2, 2-(4-Chlorophenyl)-5-(3,4-dimethoxyphenyl)furo[3,2-c]pyridin-4(5H)-one], the inhibition at 0.1 µM came out at 81% at human MCHR1 [1] and 94% at human MCHR1 [2].

As for `COc1cc(-n2cnc3oc(-c4ccc(Cl)cc4)cc3c2=O)ccc1OCC1(C#N)CC1` [Example 6, 1-((4-(6-(4-Chlorophenyl)-4-oxofuro[2,3-d]pyrimidin-3(4H)-yl)-2-methoxyphenoxy)methyl)cyclopropanecarbonitrile], the inhibition at 0.1 µM at human MCHR1 [1] amounted to 82%; on human MCHR1 [2], 37%.

Turning to `COc1ccc(-c2cc3c(=O)n(-c4ccc(OCC5(C#N)CC5)c(OC)c4)ccc3o2)cc1` [Example 16, 1-((2-Methoxy-4-(2-(4-methoxyphenyl)-4-oxofuro[3,2-c]pyridin-5(4H)-yl)phenoxy)methyl)cyclopropanecarbonitrile], the inhibition at 0.1 µM at human MCHR1 [1] came out at 79%; on human MCHR1 [2], 97%.

The values above are taken from patent US9505772B2, “Aromatic ring compound” (TAKEDA PHARMACEUTICAL COMPANY LIMITED, priority 2012, dated 2016).
